# Laboratory results: US7388017B2, “Inhibitors of serine proteases, particularly hepatitis C virus NS3 protease” (Vertex Pharmaceuticals Incorporated, priority 1996, dated 2008)
# Starred links: 1 amine or outer side, 2 acyl side, 3 side chain; linkers in the order of their positions; H or OH if unused. Non-standard residues stand in square brackets, D forms with d. Residues, ends and D or L forms follow the SMILES beside them. *: point of attachment. X23 = CCC(N*)C(=O)c1ncc(-c2c(Cl)cccc2Cl)o1; Bip = N[CH](Cc1ccc(-c2ccccc2)cc1)C(=O)O; 1Nal = N[CH](Cc1cccc2ccccc12)C(=O)O; 2Nal = N[CH](Cc1ccc2ccccc2c1)C(=O)O; Hydrocinnamoyl = O=C(CCc1ccccc1)*; Pyrazinecarbonyl = O=C(c1cnccn1)*; X41 = CCC(N*)C(=O)c1nc2ccccc2o1; 3Pal = N[CH](Cc1cccnc1)C(=O)O; Hyp = O=C(O)[CH]1C[CH](O)CN1; X12 = CCC(N*)C(=O)c1nccs1; Abu = CC[CH](N)C(=O)O; CO = O=C([*:1])[*:2]; NHPh = c1ccc(N*)cc1; Bn = c1ccc(C*)cc1
# Target: T1, HCV NS3 protease (Hepatitis C virus genotype 1a, UniProt P27958)
# T1 construct: more particularly HCV NS3 proteases
# T1 sequence (P27958 1027-1208): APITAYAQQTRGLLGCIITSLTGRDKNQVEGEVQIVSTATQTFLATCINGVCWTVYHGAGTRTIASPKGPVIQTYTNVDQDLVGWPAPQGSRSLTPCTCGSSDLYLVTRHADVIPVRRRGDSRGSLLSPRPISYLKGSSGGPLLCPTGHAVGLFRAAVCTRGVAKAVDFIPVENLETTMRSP
# Test: Enzyme inhibition of HCV NS3 serine protease (cleavage of peptide substrate / EDVV AbuC-p-nitroanilide, with or without NS4A)
# Format: biochemical
# Conditions: not given
# Summary of the method: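 Spectrophotometric assay at 30 °C following pNA release at 405 nm from EDVV AbuC-pNA substrate, with or without NS4A. Ki from rate versus [inhibitor] fitted to Morrison's tight-binding competitive inhibition equation; Kii/Kis from mixed-inhibition fits; values reported in μM.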
row,Structure (SMILES),Ki
1,CCC(NC(=O)C(CC(C)C)NC(=O)C(NC(=O)C(NC(=O)c1cnccn1)C(C)C)C(C)C)C(=O)C(=O)N[C@@H](CC)c1ccccc1 (some centres unmarked) [Compound 121],> 100 µM

# Same assay, conditions: Enzyme inhibition data; Ki from rate vs [inhibitor] plots, Morrison tight binding competitive inhibition fit; 30 C, pH 7.8; read-out: Ki
row,Structure (SMILES),Ki
1,CCC(NC(=O)C(CC(C)C)NC(=O)C(NC(=O)C(NC(=O)c1cnccn1)C(C)C)C(C)C)C(=O)C(=O)N(CC)CC (centres unmarked) [Compound 122],> 100 µM
2,CCC(NC(=O)C(CC(C)C)NC(=O)C(NC(=O)C(NC(=O)c1cnccn1)C(C)C)C(C)C)C(=O)C(=O)NCC(C)OC (centres unmarked) [Compound 123],1 to 100 µM
3,CCC(NC(=O)C(CC(C)C)NC(=O)C(NC(=O)C(NC(=O)C(CC(=O)O)NC(=O)C(N)CCC(=O)O)C(C)C)C(C)C)C(=O)c1nc2ccccc2o1 (centres unmarked) [Compound 124] (H-EDVVL-X41; configuration not given here),1 to 100 µM
4,CCC(NC(=O)C(CC(C)C)NC(=O)C(NC(=O)C(NC(=O)C(CC(=O)O)NC(=O)C(N)CCC(=O)O)C(C)C)C(C)C)C(=O)c1nccs1 (centres unmarked) [Compound 125] (H-EDVVL-X12; configuration not given here),1 to 100 µM
5,CCC(NC(=O)C(CC(C)C)NC(=O)C(NC(=O)C(NC(=O)C(CC(=O)O)NC(=O)C(N)CCC(=O)O)C(C)C)C(C)C)C(=O)c1ncc(-c2c(Cl)cccc2Cl)o1 (centres unmarked) [Compound 126] (H-EDVVL-X23; configuration not given here),> 100 µM
6,CCC(C=O)NC(=O)C1CC(OCc2ccccc2)CN1C(=O)C(NC(=O)C(Cc1cccnc1)NC(=O)c1cnccn1)C(C)C (centres unmarked) [Compound 127] (Pyrazinecarbonyl-[3Pal]V[Hyp](Bn)[Abu]-aldehyde; configuration not given here),> 100 µM
7,CCC(C=O)NC(=O)C1CC(OCc2ccccc2)CN1C(=O)C(NC(=O)C(Cc1ccc(-c2ccccc2)cc1)NC(=O)c1cnccn1)C(C)C (centres unmarked) [Compound 130] (Pyrazinecarbonyl-[Bip]V[Hyp](Bn)[Abu]-aldehyde; configuration not given here),> 100 µM
8,CCC(C=O)NC(=O)C1CC(OCc2ccccc2)CN1C(=O)C(NC(=O)C(Cc1cccc2ccccc12)NC(=O)c1cnccn1)C(C)C (centres unmarked) [Compound 131] (Pyrazinecarbonyl-[1Nal]V[Hyp](Bn)[Abu]-aldehyde; configuration not given here),1 to 100 µM
9,CCC(C=O)NC(=O)C1CC(OCc2ccccc2)CN1C(=O)C(NC(=O)C(Cc1ccc2ccccc2c1)NC(=O)c1cnccn1)C(C)C (centres unmarked) [Compound 132] (Pyrazinecarbonyl-[2Nal]V[Hyp](Bn)[Abu]-aldehyde; configuration not given here),1 to 100 µM
10,CCC(C=O)NC(=O)C1CC(OCc2ccccc2)CN1C(=O)C(NC(=O)C(Cc1c[nH]cn1)NC(=O)c1cnccn1)C(C)C (centres unmarked) [Compound 134] (Pyrazinecarbonyl-HV[Hyp](Bn)[Abu]-aldehyde; configuration not given here),> 100 µM
11,CCC(C=O)NC(=O)C1CC(OCc2ccccc2)CN1C(=O)C(NC(=O)C(Cc1ccccc1)NC(=O)c1cnccn1)C(C)C (centres unmarked) [Compound 141] (Pyrazinecarbonyl-FV[Hyp](Bn)[Abu]-aldehyde; configuration not given here),1 to 100 µM
12,CCC(C=O)NC(=O)C1CC(OCc2ccccc2)CN1C(=O)C(NC(=O)C(NC(=O)c1cnccn1)C(C)OCc1ccccc1)C(C)C (centres unmarked) [Compound 142] (Pyrazinecarbonyl-T(Bn)V[Hyp](Bn)[Abu]-aldehyde; configuration not given here),1 to 100 µM
13,CCC(C=O)NC(=O)C1CC(OCc2ccccc2)CN1C(=O)C(NS(=O)(=O)Cc1ccccc1)C(C)C (centres unmarked) [Compound 143],> 100 µM
14,CCC(C=O)NC(=O)C1CC(OCc2ccccc2)CN1C(=O)C(NS(=O)(=O)c1ccccc1)C(C)C (centres unmarked) [Compound 144],> 100 µM
15,CCC(C=O)NC(=O)C1CC(OCc2ccccc2)CN1C(=O)C(NC(=O)Nc1ccccc1)C(C)C (centres unmarked) [Compound 145] ({NHPh-CO}-Val-[Hyp](Bn)-[Abu]-aldehyde; configuration not given here),1 to 100 µM
16,CCC(C=O)NC(=O)C1CC(OCc2ccccc2)CN1C(=O)C(NC(=O)CCc1ccccc1)C(C)C (centres unmarked) [Compound 147] (Hydrocinnamoyl-Val-[Hyp](Bn)-[Abu]-aldehyde; configuration not given here),> 100 µM
